Measured values as given in patent US8143446B2, “Substituted acrylamide derivative and pharmaceutical composition comprising the same” (Daiichi Sankyo Company, Limited, priority 2005, dated 2012).

Key:
[1] = tested on: 4-week old male Wistar rats; test: Evaluation of blood calcium concentration-decreasing activity (serum calcium after oral dosing of immature rats); assay type: in vivo, rat; details: serum 6 hours after administration, fasted 4-week old male Wistar rats, vs normal control group
Experimental: The blood calcium concentration in a living body is strictly controlled and constantly maintained by intestinal absorption and urinary excretion and release (bone resorption) and adhesion (bone formation) in bone tissues. […] The bone resorption-suppressing activity of compounds according to the present invention was evaluated by administering the compounds to immature rats and observing decreases in blood calcium concentration as an index of the activity.
The test was conducted using 4-week old male Wistar rats fasted for 12 to 24 hours. Each compound to be tested was suspended in 0.5% methyl cellulose (MC). The suspension was orally administered to the rats at a dose of 5 mL/kg. Similarly, rats of a normal control group were administered with 0.5% MC alone. Then, blood was drawn from rat jugular vein under ether anesthesia 6 hours after the administration of each test compound or 0.5% MC. The blood was immediately centrifuged (10000 rpm, 5 minutes) at room temperature to separate serum. The calcium concentration of each serum was measured by an autoanalyzer (JEOL, JCA-BM2250). Five rats were used for each test group.
The evaluation was conducted by a comparative test with the normal control group and based on the serum calcium concentration-decreasing rate (%) calculated according to the following formula:
Serum calcium concentration-decreasing rate (%)=(([serum calcium concentration in normal control group] - [serum calcium concentration in test compound administration group])/[serum calcium concentration in normal control group])×100.

[2] = tested on: adjuvant arthritis model rats; test: Evaluation of bone density decrease-suppressing activity and anti-arthritic activity (adjuvant arthritis model); assay type: in vivo, rat; details: oral 10 mg/kg once a day for 7 days from day 14 after adjuvant; for Paw edema-suppressing rate (%): hind paw volume on day 21, 8-week old female Lewis rats; for Bone density decrease-suppressing rate (%): thighbone bone density on day 21, 8-week old female Lewis rats
Experimental: In rheumatoid arthritis, not only swelling and pain caused by arthritis but also systemic bone mass decrease and articular destruction caused by a significant increase in bone resorption are observed.
The test was conducted using 8-week old female Lewis rats. Mycobacterium butyricum cells which were killed by heat were ground in an agate mortar, suspended in liquid paraffin sterilized by dry heat to a concentration of 2 mg/mL, and treated with ultrasound to prepare an adjuvant. Under ether anesthesia, rats in a control group other than a normal control group and rats in a test compound administration group were intradermally injected with 0.05 mL of this adjuvant each time (0.1 mL/rat in total) at two portions of the base of the tail. Starting from 14 days after the injection of the adjuvant, each rat was orally administered with 5 mL/kg of a test compound suspended in 0.5% MC once a day for 7 days. Similarly, the rats of the control group were administered with 0.5% MC alone. On the 21st day after the adjuvant injection, hind paw volumes were measured by using a paw edema volume determining device (MUROMACHI KIKAI, TK-101CMP). Then, the thighbone was biopsied. The thighbone was, after removing soft tissues, sufficiently fixed, dehydrated, and dried using ethanol. The bone density of the thighbone was measured with a bone density analyzer (Aloka, DOS-600 EX-IIIR). Five rats were used for each test group.
The evaluation was conducted by comparison tests with the normal control group and the control group and based on the bone density decrease-suppressing rate (%) and the paw edema-suppressing rate (%) calculated according to the following formulae: Bone density decrease-suppressing rate (%)=(1−([thighbone bone density in normal control group]−[thighbone bone density in test compound administration group])/([thighbone bone density in normal control group]−[thighbone bone density in control group]))×100 Paw edema-suppressing rate (%)=(1−([paw volume of test compound administration group]−[paw volume in normal control group])/([paw volume in control group]−[paw volume in normal control group]))×100

SMILES | Serum calcium concentration-decreasing rate (%) ([1]; administration dose 10 mg/kg) | Paw edema-suppressing rate (%) [2] [%] | Bone density decrease-suppressing rate (%) [2] [%] | melting point [°C] | Serum calcium concentration-decreasing rate (%) ([1]; administration dose 20 mg/kg)
COc1ccc(CCOc2ccc(C(=O)N/C(=C\c3ccc(C4CC4)cc3)C(=O)NCCO)cc2)cc1 [Example 5, N-((Z)-2-(4-Cyclopropylphenyl)-1-{[(2-hydroxyethyl)amino]carbonyl}vinyl)-4-[2-(4-methoxyphenyl)ethoxy]benzamide] | 27.6 | 25 | 54 |  | 
CC(C)COc1ccc(C(=O)N/C(=C\c2ccc(C(F)(F)F)nc2)C(=O)NCCO)cc1 [Example 2-16, N-{(Z)-1-{[(2-hydroxyethyl)amino]carbonyl}-2-[6-(trifluoromethyl)pyridin-3-yl]vinyl}-4-isobutoxybenzamide] |  |  |  | 184 to 187 | 
O=C(NCCO)/C(=C/c1ccc(OC2CC2)cc1)NC(=O)c1ccc(OCCC2CC2)cc1 [Example 16, 4-(2-Cyclopropylethoxy)-N-((Z)-2-[4-(cyclopropyloxy)phenyl]-1-{[(2-hydroxyethyl)amino]carbonyl}vinyl)benzamide] | 27.2 | 35 | 70 |  | 
CC(C)COc1ccc(C(=O)N/C(=C\c2ccc(OC(C)C)cc2)C(=O)NCCO)c(F)c1 [Example 2-21, 2-fluoro-N-[(Z)-1-{[(2-hydroxyethyl)amino]carbonyl}-2-(4-isopropoxyphenyl)vinyl]-4-isobutoxybenzamide] |  |  |  | 51 to 54 | 
COc1ccc(CCOc2ccc(C(=O)N/C(=C\c3ccc(OC(F)(F)F)cc3)C(=O)NCCO)cc2)cc1 [Example 3, N-{(Z)-1-{[(2-Hydroxyethyl)amino]carbonyl}-2-[4-(trifluoromethoxy)phenyl]vinyl}-4-[2-(4-methoxyphenyl)ethoxy]benzamide] |  | 22 | 57 |  | 
CC(C)Oc1ccc(/C=C(\NC(=O)c2ccc(OCCc3ccc(N(C)C)cc3)cc2)C(=O)NCCO)cc1.Cl |  |  |  | 103 to 105 | 
O=C(NCCO)/C(=C/c1ccc(C2CC2)cc1)NC(=O)c1ccc(OCCC2CC2)cc1 [Example 9, 4-(2-Cyclopropylethoxy)-N-((Z)-2-(4-cyclopropylphenyl)-1-{[(2-hydroxyethyl)amino]carbonyl}vinyl)benzamide] |  | 11 | 37 |  | 29.3
O=C(NCCO)/C(=C/c1ccc(Cl)cc1)NC(=O)c1ccc(OCCC2CC2)cc1 [Example 14, N-((Z)-2-(4-Chlorophenyl)-1-{[(2-hydroxyethyl)amino]carbonyl}vinyl)-4-(2-cyclopropylethoxy)benzamide] | 33.2 | 12 | 86 |  | 
O=C(NCCO)/C(=C/c1ccc(OC(F)(F)F)cc1)NC(=O)c1ccc(OCCC2CC2)cc1 [Example 11, 4-(2-Cyclopropylethoxy)-N-{(Z)-1-{[(2-hydroxyethyl)amino]carbonyl}-2-[4-(trifluoromethoxy)phenyl]vinyl}benzamide] |  | 29 | 40 |  | 30.6
CC(C)COc1ccc(C(=O)N/C(=C\c2ccc(OC(C)C)cc2)C(=O)NCCO)cn1 [Example 2-19, N-[(Z)-1-{[(2-hydroxyethyl)amino]carbonyl}-2-(4-isopropoxyphenyl)vinyl]-6-isobutoxynicotinamide] |  |  |  | 74 to 76 | 
CC(C)COc1ccc(C(=O)N/C(=C\c2ccc3ccccc3c2)C(=O)NCCO)cc1 [Example 2-6, N-[(Z)-1-{[(2-hydroxyethyl)amino]carbonyl}-2-(2-naphthyl)vinyl]-4-isobutoxybenzamide] |  |  |  | 150 to 152 | 
